Tests used:
[1] = in vivo; cited from earlier work
[2] = tested on: entorhinal cortex (EC) slices; assay: Low Mg2+ (Mg2+-free) in vitro model of epilepsy: frequency of epileptiform events; format: cell-based, Wistar rats; conditions: 10 μM non-liposomal, 15 min wash-in; n=4 slices
Source text: In the ‘low Mg^2+’ in vitro model of epilepsy the susceptibility of the entorhinal cortex (EC) to seizure activity is exploited by acutely bathing EC slices in Mg^2+-free artificial cerebrospinal fluid (ACSF). The removal of Mg^2+ from the extracellular environment consequently removes the normal Mg^2+ block on the N-Methyl-D-aspartic acid (NMDA) receptor. […]
Recordings from the tissue chamber were made using Ag/AgCl pellet electrodes (Harvard Apparatus, UK). The signal was collected on a chart recorder (Semat, UK) or digitally recorded (Neurolog, UK). […] Digitally recorded signals were amplified (×100 gain) and high-pass filtered (8.9 Hz cut-off). […] Drugs were applied via the perfusate (Mg^2+-free ACSF) and the frequency of epileptiform events (SLEs or LRDs) were measured before and during drug application. […]
To determine the effect of control drug solutions on the frequency of epileptiform activity, the frequency of events 30 min (in most cases) prior to drug application (pre-drug) was compared with the frequency of events during the wash-in period (15 min). For the drug delivered in liposomes, in addition to the frequency of pre-drug events and during wash-in, the frequency of events during 30 min immediately after the application of the ultrasound trigger was also quantified. […]

| Structure (SMILES) | fraction crossing the blood-brain barrier [1] | reduction in epileptiform activity [2] |
| --- | --- | --- |
| N[C@@H](Cc1ccc(O)c(O)c1)C(=O)O [levodopa] | 5-10% |  |
| NCc1cc(O)no1 [muscimol, 5-(aminomethyl)-isoxazol-3-ol] |  | 85%±14 |

From US12329815B2, “Acoustic driven drug delivery systems” (UNIVERSITY OF OTAGO, priority 2015, dated 2025)
